“And” between values parts separate entries of the source, which are not always exact repeats. Equal values may be shown once. Read-outs that look alike come from different tables or passages of the source. Where a SMILES comes first, the peptide text is derived from it. [ ]: non-standard residue; d: D form. The star is where a group is joined. Sta = CC(C)C[C@H](N)[C@@H](O)CC(=O)O; Isovaleryl = CC(C)CC(=O)*
Legend:
ruLAP2 = ruLAP2 (Trichophyton rubrum, UniProt Q5QHG6); type: biochemical; conditions: for effect of inhibitor on ruLAP2 activity: Leu-AMC 5 mM; for ruLAP2 activity as percentage of control reaction without inhibitor / ruLAP2 activity as percentage of control reaction without any cation: Leu-MCA substrate, 15 min pre-incubation
Chain of ruLAP2 (Q5QHG6 20-495): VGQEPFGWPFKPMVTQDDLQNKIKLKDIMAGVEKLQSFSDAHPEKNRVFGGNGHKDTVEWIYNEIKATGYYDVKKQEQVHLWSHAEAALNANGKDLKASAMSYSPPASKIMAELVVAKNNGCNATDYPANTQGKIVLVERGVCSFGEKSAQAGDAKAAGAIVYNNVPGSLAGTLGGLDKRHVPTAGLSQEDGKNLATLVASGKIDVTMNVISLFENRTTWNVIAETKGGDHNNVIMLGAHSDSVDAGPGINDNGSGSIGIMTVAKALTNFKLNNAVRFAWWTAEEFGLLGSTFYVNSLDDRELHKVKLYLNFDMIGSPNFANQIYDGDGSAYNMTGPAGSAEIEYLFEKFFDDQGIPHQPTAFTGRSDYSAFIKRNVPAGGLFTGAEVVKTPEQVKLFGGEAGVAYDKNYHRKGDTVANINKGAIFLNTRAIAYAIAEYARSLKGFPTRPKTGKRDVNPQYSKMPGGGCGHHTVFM

fuLAP2 = type: biochemical, Aspergillus fumigatus; conditions: for effect of inhibitor on fuLAP2 activity: Leu-AMC 5 mM
[1] = molecular target: T1, pkLAP (microsomal LAP from porcine kidney) (Sus scrofa, UniProt P15145); experiment: Effect of inhibitors and metallic cations on LAP activity (Leu-AMC); type: biochemical; conditions: for effect of inhibitor on pkLAP activity: Leu-AMC 5 mM; for effect of divalent cation on pkLAP activity: Leu-AMC, cations 0.5 mM and 1 mM
T1 construct: purchased Sigma; host or cells: porcine kidney
T1 sequence (P15145 1-963): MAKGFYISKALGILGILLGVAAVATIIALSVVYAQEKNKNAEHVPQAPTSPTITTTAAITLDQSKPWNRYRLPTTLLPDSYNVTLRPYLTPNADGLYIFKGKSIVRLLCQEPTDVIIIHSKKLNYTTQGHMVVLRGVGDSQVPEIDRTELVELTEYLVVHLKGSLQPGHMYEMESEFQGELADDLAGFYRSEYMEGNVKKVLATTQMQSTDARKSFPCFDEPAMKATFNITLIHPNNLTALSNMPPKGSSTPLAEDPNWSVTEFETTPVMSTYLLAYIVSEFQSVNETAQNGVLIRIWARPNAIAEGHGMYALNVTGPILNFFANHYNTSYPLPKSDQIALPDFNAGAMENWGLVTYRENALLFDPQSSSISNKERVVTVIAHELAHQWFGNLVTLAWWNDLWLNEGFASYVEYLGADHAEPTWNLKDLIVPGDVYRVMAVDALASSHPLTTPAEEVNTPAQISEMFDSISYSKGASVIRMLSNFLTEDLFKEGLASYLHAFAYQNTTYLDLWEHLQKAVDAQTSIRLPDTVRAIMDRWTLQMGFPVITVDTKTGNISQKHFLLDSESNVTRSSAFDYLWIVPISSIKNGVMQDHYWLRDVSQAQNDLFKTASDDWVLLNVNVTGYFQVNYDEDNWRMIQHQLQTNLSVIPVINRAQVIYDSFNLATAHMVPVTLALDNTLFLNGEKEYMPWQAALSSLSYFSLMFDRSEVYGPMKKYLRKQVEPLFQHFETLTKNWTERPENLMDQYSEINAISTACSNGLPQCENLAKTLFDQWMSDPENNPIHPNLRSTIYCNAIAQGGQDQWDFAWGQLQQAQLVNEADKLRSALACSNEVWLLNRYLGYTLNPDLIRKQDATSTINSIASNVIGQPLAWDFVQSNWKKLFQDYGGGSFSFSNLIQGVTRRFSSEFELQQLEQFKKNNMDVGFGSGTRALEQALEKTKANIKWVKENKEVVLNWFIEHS

fuLAP1 = fuLAP1 (Aspergillus fumigatus, UniProt Q5VJG6); experiment: biochemical; type: biochemical
Chain of fuLAP1 (Q5VJG6 16-388): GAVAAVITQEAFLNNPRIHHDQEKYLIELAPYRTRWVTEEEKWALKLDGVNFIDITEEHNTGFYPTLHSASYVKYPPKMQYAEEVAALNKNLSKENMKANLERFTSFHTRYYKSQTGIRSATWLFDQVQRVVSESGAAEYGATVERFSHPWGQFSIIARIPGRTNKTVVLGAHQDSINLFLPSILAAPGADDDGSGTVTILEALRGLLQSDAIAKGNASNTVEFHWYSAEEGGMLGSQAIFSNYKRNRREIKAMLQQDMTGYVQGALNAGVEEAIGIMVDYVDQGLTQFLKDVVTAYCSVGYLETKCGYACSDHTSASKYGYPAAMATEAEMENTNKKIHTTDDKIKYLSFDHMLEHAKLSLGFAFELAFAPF

ruLAP1 = ruLAP1 (Trichophyton rubrum, UniProt Q5QHG5); type: biochemical; conditions: for effect of inhibitor on ruLAP1 activity: Leu-AMC 5 mM
Chain of ruLAP1 (Q5QHG5 21-373): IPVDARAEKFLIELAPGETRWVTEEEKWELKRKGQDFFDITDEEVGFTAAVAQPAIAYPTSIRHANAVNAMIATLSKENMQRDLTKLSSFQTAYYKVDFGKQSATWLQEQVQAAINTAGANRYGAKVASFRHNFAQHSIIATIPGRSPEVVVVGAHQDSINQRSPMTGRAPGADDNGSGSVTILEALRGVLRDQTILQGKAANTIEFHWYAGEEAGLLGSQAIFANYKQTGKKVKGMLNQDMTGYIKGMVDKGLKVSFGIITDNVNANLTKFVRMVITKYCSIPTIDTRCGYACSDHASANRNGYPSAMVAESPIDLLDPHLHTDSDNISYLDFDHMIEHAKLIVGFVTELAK

[2] = inhibitor 100 μM, Leu-MCA substrate, 15 min pre-incubation
[3] = inhibitor 100 μM, Leu-MCA substrate, 15 min pre-incubation, read-out: pkLAP activity as percentage of control reaction without inhibitor
[4] = inhibitor 100 μM, Leu-MCA substrate, 15 min pre-incubation, read-out: fuLAP1 activity as percentage of control reaction without inhibitor
[5] = cation salt 0.5 mM, Leu-MCA substrate, 15 min pre-incubation
[6] = cation salt 1 mM, Leu-MCA substrate, 15 min pre-incubation
[7] = inhibitor 20 μM, Leu-MCA substrate, 15 min pre-incubation
[8] = read-out: pkLAP activity as percentage of control reaction without inhibitor
[9] = read-out: fuLAP1 activity as percentage of control reaction without inhibitor
[10] = inhibitor 500 μM, Leu-MCA substrate, 15 min pre-incubation

Row | Structure (SMILES) | effect of inhibitor on ruLAP2 activity (ruLAP2) | effect of inhibitor on fuLAP1 activity (fuLAP1; Leu-AMC 5 mM) | effect of inhibitor on ruLAP1 activity (ruLAP1) | ruLAP2 activity as percentage of control reaction without any cation (ruLAP2; cation salt 0.5 mM) [%] | ruLAP2 activity as percentage of control reaction without any cation (ruLAP2; cation salt 1 mM) [%] | fuLAP2 activity as percentage of control reaction without any cation (fuLAP2; [5]) [%] | fuLAP2 activity as percentage of control reaction without any cation (fuLAP2; [6]) [%] | pkLAP activity as percentage of control reaction without any cation [1, 5] [%] | pkLAP activity as percentage of control reaction without any cation [1, 6] [%] | fuLAP1 activity as percentage of control reaction without any cation (fuLAP1; [5]) [%] | fuLAP1 activity as percentage of control reaction without any cation (fuLAP1; [6]) [%] | further results
1 | N=C(N)c1ccccc1 [benzamidine] | no clear inhibitory effects | no clear inhibitory effects | no clear inhibitory effects | – | – | – | – | – | – | – | – | effect of inhibitor on fuLAP2 activity (fuLAP2): no clear inhibitory effects; fuLAP2 activity as percentage of control reaction without inhibitor (fuLAP2; inhibitor 40 μM, Leu-MCA substrate, 15 min pre-incubation): 91%; effect of inhibitor on pkLAP activity [1]: no clear inhibitory effects; remaining activity at 40 µM ([1]; inhibitor 40 μM, Leu-MCA substrate, 15 min pre-incubation, read-out: pkLAP activity as percentage of control reaction without inhibitor): 75%; remaining activity at 40 µM (fuLAP1; inhibitor 40 μM, Leu-MCA substrate, 15 min pre-incubation, read-out: fuLAP1 activity as percentage of control reaction without inhibitor): 77%
2 | CC(C)C[C@H](NC(=O)[C@H]1O[C@@H]1C(=O)O)C(=O)NCCCCN=C(N)N [E 64] | – | – | – | – | – | – | – | – | – | – | – | ruLAP2 activity as percentage of control reaction without inhibitor (ruLAP2; inhibitor 100 μM): 34%; fuLAP2 activity as percentage of control reaction without inhibitor (fuLAP2; [2]): 71%; pkLAP activity as percentage of control reaction without inhibitor [1, 2]: 93%; fuLAP1 activity as percentage of control reaction without inhibitor (fuLAP1; [2]): 190%; ruLAP1 activity as percentage of control reaction without inhibitor (ruLAP1; 100 µM): 103%
3 | CC(C)CC(=O)N[C@H](C(=O)N[C@H](C(=O)N[C@@H](CC(C)C)[C@@H](O)CC(=O)N[C@@H](C)C(=O)N[C@@H](CC(C)C)[C@@H](O)CC(=O)O)C(C)C)C(C)C [pepstatin, pepstatin A] (Isovaleryl-VV[Sta]A[Sta]-OH) | – | some sensitivity | some sensitivity | – | – | – | – | – | – | – | – | fuLAP2 activity as percentage of control reaction without inhibitor (fuLAP2; [2]): 73%; remaining activity at 100 µM [1, 3]: 64%; remaining activity at 100 µM (fuLAP1; [4]): 14%
4 | [Cl][Ni][Cl] [Ni, NiCl2] | – | – | – | 130.5 | 147.9 | 98.4 | 149.3 | 1187.7 | 1158.7 | 51.7 | 37.2 | effect of divalent cation on pkLAP activity [1]: highly activated; ruLAP1 activity as percentage of control reaction without any cation (ruLAP1): 74.8% and 58.1%
5 | Cc1ccc(S(=O)(=O)N[C@@H](CCCCN)C(=O)CCl)cc1 [TLCK] | no clear inhibitory effects | no clear inhibitory effects | no clear inhibitory effects | – | – | – | – | – | – | – | – | ruLAP2 activity as percentage of control reaction without inhibitor (ruLAP2; inhibitor 20 μM): 96%; effect of inhibitor on fuLAP2 activity (fuLAP2): no clear inhibitory effects; fuLAP2 activity as percentage of control reaction without inhibitor (fuLAP2; [7]): 120%; effect of inhibitor on pkLAP activity [1]: no clear inhibitory effects; pkLAP activity as percentage of control reaction without inhibitor [1, 7]: 113%; fuLAP1 activity as percentage of control reaction without inhibitor (fuLAP1; [7]): 80%; ruLAP1 activity as percentage of control reaction without inhibitor (ruLAP1; [7]): 68%
6 | [Cl-].[Cl-].[Mg+2] [MgCl2] | – | – | – | 121.2 | 110.2 | 97.6 | 108.0 | 130.1 | 146.1 | 68.5 | 72.6 | ruLAP1 activity as percentage of control reaction without any cation (ruLAP1): 129.9% and 132.6%
7 | O=C(O)CN(CCN(CC(=O)O)CC(=O)O)CC(=O)O [EDTA] | more sensitive | – | more sensitive | – | – | – | – | – | – | – | – | fuLAP2 activity as percentage of control reaction without inhibitor (fuLAP2): 50% and 77%; remaining activity at 1000 µM [1, 8]: 68%; remaining activity at 5000 µM [1, 8]: 99%; effect of inhibitor on fuLAP1 activity (fuLAP1): more sensitive; remaining activity at 1000 µM (fuLAP1; [9]): 19%; remaining activity at 5000 µM (fuLAP1; [9]): 16%
8 | CC(=O)N[C@@H](CC(C)C)C(=O)N[C@@H](CC(C)C)C(=O)N[C@H](C=O)CCCNC(=N)N [Leupeptin, leupeptin] | no clear inhibitory effects | no clear inhibitory effects | no clear inhibitory effects | – | – | – | – | – | – | – | – | effect of inhibitor on fuLAP2 activity (fuLAP2): no clear inhibitory effects; fuLAP2 activity as percentage of control reaction without inhibitor (fuLAP2; [2]): 61%; effect of inhibitor on pkLAP activity [1]: no clear inhibitory effects; remaining activity at 100 µM [1, 3]: 86%; remaining activity at 100 µM (fuLAP1; [4]): 149%
9 | [Cl-].[Cl-].[Zn+2] [Zn, ZnCl2] | – | – | – | 77.9 | 88.9 | 51.4 | 119.5 | 437.6 | 297.9 | 60.7 | 53.2 | effect of divalent cation on pkLAP activity [1]: highly activated; ruLAP1 activity as percentage of control reaction without any cation (ruLAP1): 43.0% and 68.9%
10 | O=C(O)c1cc[c]([Hg][Cl])cc1 [p-chloromercuribenzoate, p-chloromercuribenzoic acid] | blunted the activity | – | – | – | – | – | – | – | – | – | – | ruLAP2 activity as percentage of control reaction without inhibitor (ruLAP2; inhibitor 500 μM): 21%; fuLAP2 activity as percentage of control reaction without inhibitor (fuLAP2; [10]): 96%; pkLAP activity as percentage of control reaction without inhibitor [1, 10]: 59%; fuLAP1 activity as percentage of control reaction without inhibitor (fuLAP1; [10]): 90%; ruLAP1 activity as percentage of control reaction without inhibitor (ruLAP1; 500 µM): 32%
11 | [Cl][Cu][Cl] [Cu^++, CuCl2] | – | – | – | 50.9 | 34.7 | 68.9 | 73.6 | 1422.0 | 1092.4 | 25.8 | 17.0 | effect of divalent cation on pkLAP activity [1]: highly activated
12 | CC(C)C[C@H](NC(=O)[C@H]1O[C@@H]1C(=O)O)C(=O)NCCCCN=C(N)N (relative stereo) [E64, L-trans-epoxysuccinyl-leu-4-guanidinobutylamide] | blunted the activity | – | – | – | – | – | – | – | – | – | – | –

From patent US7354734B2, “Fungal proteins and nucleic acids encoding same” (priority 2003, dated 2008)
